We go through 2 compounds from ChEMBL document CHEMBL5678818, “Discovery of potent SOS1 inhibitors that block RAS activation via disruption of the RAS-SOS1 interaction” (Proc Natl Acad Sci U S A, 2019).

Assay [1] addresses Son of sevenless homolog 1 (Homo sapiens, UniProt Q07889). In words: Inhibition of N-terminal His10-tagged wild-type recombinant human SOS1 catalytic domain (564 to 1049 residues) expressed in Escherichia coli assessed as reduction in KRAS G12C mutant activation preincubated for 2 mins with KRAS followed by SOS1 addition measured after 20 mins in presence of EDA-GTP-DY-647P1 by HTRF analysis. A general note: TR-FRET usually uses a lanthanide donor and a delayed reading to cut background.

Assay [2] has as its target T1, Serine/threonine-protein kinase ICK (Homo sapiens) (UniProt Q9UPZ9).
T1 sequence (whole entry): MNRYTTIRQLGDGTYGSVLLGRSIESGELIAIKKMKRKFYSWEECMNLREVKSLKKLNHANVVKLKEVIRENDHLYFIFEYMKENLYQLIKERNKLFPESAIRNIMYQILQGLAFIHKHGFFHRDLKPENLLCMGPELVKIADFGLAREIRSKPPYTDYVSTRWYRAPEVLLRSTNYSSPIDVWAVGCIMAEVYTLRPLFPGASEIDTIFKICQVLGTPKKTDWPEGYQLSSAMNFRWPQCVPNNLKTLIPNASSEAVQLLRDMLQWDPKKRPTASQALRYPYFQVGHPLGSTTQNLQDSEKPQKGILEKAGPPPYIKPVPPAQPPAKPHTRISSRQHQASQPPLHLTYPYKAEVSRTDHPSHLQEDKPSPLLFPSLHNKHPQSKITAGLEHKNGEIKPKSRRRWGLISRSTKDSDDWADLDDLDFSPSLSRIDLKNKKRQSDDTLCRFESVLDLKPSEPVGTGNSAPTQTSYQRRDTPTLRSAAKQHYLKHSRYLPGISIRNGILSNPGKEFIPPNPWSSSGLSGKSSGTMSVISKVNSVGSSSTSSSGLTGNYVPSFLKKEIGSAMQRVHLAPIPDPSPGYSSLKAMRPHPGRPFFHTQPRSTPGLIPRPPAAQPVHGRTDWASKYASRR
In words: Inhibition of ICK (unknown origin) assessed as residual activity at 100 nM by KINOMEscan analysis relative to control.

For assay [3], the target named is Cyclin-dependent kinase 7 (Homo sapiens) (UniProt P50613). The assay is described as follows: Inhibition of CDK7 (unknown origin) assessed as residual activity at 100 nM by KINOMEscan analysis relative to control.
In assay [4] the target is Death-associated protein kinase 2 (Homo sapiens) (UniProt Q9UIK4). The assay is described as follows: Inhibition of DAPK2 (unknown origin) assessed as residual activity at 100 nM by KINOMEscan analysis relative to control.
Assay [5] concerns the target Cyclin-dependent kinase 11B (Homo sapiens) (UniProt P21127). In words: Inhibition of CDC2L1 (unknown origin) assessed as residual activity at 100 nM by KINOMEscan analysis relative to control.
Assay [6] deals with cAMP-dependent protein kinase catalytic subunit beta (Homo sapiens) (UniProt P22694). In words: Inhibition of PKAC-beta (unknown origin) assessed as residual activity at 100 nM by KINOMEscan analysis relative to control.
Assay [7] has as its target Mitogen-activated protein kinase kinase kinase 10 (Homo sapiens) (UniProt Q02779). The assay is described as follows: Inhibition of MLK2 (unknown origin) assessed as residual activity at 100 nM by KINOMEscan analysis relative to control.
Assay [8] concerns Phosphatidylinositol 4,5-bisphosphate 3-kinase catalytic subunit alpha isoform (Homo sapiens), P42336 [M1043I]. In words: Inhibition of PIK3CA M1043I mutant (unknown origin) assessed as residual activity at 100 nM by KINOMEscan analysis relative to control.
The target of assay [9] is Cyclin-dependent kinase 2 (Homo sapiens) (UniProt P24941). The assay is described as follows: Inhibition of CDK2 (unknown origin) assessed as residual activity at 100 nM by KINOMEscan analysis relative to control.
Assay [10] deals with Atypical kinase COQ8A, mitochondrial (Homo sapiens) (UniProt Q8NI60). In words: Inhibition of ADCK3 (unknown origin) assessed as residual activity at 100 nM by KINOMEscan analysis relative to control.
The target of assay [11] is Serine/threonine-protein kinase WNK3 (Homo sapiens) (UniProt Q9BYP7). The assay is described as follows: Inhibition of WNK3 (unknown origin) assessed as residual activity at 100 nM by KINOMEscan analysis relative to control.
The test system of assay [12] is Hepatocyte growth factor receptor (Homo sapiens), P08581 [Y1235D]. In words: Inhibition of MET Y1235D mutant (unknown origin) assessed as residual activity at 100 nM by KINOMEscan analysis relative to control.
Assay [13] deals with T2, Dual specificity mitogen-activated protein kinase kinase 3 (Homo sapiens) (UniProt P46734).
T2 sequence (whole entry): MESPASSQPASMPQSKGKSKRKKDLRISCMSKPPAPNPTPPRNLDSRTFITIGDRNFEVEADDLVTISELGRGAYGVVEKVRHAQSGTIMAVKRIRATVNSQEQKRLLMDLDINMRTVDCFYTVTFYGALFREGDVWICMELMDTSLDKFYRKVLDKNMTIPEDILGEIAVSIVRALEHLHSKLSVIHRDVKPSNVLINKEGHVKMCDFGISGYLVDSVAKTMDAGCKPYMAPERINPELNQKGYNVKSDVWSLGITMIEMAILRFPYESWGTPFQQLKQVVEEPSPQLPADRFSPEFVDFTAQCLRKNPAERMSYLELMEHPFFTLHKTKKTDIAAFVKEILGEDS
The assay is described as follows: Inhibition of MEK3 (unknown origin) assessed as residual activity at 100 nM by KINOMEscan analysis relative to control.

For orientation: IC50 means the concentration that inhibits the measured activity by half.

Atypical kinase COQ8A, mitochondrial (Homo sapiens), sequence (Q8NI60 163-647 limits assumed): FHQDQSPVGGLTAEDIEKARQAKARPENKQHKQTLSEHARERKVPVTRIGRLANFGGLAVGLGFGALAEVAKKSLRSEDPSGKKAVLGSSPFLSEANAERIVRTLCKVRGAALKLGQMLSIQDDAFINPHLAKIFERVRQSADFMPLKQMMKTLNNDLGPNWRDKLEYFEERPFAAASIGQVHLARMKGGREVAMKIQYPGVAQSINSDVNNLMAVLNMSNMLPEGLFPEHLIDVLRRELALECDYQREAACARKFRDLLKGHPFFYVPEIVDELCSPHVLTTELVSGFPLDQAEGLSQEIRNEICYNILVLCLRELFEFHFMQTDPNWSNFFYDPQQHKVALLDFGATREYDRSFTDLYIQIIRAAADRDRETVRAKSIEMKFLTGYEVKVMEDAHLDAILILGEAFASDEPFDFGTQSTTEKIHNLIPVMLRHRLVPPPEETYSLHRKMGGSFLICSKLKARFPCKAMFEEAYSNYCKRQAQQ
Son of sevenless homolog 1, sequence (Q07889 whole entry, looked up, stated change not applied, the tested form may be a part): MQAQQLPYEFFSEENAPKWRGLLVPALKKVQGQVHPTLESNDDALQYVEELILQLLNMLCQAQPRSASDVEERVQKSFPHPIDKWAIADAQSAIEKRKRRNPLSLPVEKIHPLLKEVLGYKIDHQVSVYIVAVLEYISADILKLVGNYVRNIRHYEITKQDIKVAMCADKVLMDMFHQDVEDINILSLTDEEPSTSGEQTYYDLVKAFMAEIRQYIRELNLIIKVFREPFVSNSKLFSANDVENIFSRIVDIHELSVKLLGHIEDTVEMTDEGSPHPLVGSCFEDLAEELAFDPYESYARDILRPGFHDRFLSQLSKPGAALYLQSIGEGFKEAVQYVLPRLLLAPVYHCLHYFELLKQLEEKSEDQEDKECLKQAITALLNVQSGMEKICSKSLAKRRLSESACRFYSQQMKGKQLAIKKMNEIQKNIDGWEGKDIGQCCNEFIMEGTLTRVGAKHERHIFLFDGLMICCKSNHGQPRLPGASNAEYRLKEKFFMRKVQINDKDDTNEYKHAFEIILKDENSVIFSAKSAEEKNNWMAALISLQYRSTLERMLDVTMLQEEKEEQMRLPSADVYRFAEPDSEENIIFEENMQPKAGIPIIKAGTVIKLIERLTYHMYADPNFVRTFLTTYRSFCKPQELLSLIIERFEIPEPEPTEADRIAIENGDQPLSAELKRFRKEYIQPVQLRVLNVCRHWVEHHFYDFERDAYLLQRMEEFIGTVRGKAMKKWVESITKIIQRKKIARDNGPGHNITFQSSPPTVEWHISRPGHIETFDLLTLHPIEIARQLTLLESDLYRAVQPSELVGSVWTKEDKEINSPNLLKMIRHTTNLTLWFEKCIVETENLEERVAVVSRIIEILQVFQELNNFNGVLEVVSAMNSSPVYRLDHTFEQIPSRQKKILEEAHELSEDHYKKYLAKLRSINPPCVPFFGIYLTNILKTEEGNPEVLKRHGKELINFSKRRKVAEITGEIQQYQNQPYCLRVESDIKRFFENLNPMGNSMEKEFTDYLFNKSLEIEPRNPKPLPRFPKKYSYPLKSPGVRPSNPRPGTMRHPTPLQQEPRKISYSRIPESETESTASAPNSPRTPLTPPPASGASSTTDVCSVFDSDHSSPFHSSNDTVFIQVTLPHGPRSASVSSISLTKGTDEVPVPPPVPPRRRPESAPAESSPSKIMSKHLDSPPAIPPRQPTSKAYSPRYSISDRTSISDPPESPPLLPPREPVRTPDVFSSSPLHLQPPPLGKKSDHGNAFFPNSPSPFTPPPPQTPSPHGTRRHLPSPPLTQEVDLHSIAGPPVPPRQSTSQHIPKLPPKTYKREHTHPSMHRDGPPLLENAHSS
Cyclin-dependent kinase 7 (Homo sapiens), sequence (P50613 whole entry): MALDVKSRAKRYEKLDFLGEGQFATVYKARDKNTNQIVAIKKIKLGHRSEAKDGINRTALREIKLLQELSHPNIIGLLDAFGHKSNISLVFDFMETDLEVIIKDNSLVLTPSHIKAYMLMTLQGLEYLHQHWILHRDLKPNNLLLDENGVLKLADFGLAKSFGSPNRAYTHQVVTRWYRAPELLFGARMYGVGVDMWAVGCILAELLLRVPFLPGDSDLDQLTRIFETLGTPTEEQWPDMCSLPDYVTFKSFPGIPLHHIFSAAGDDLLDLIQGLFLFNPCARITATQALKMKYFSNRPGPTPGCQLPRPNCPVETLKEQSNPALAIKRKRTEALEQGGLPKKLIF
Serine/threonine-protein kinase WNK3 (Homo sapiens), sequence (Q9BYP7 whole entry): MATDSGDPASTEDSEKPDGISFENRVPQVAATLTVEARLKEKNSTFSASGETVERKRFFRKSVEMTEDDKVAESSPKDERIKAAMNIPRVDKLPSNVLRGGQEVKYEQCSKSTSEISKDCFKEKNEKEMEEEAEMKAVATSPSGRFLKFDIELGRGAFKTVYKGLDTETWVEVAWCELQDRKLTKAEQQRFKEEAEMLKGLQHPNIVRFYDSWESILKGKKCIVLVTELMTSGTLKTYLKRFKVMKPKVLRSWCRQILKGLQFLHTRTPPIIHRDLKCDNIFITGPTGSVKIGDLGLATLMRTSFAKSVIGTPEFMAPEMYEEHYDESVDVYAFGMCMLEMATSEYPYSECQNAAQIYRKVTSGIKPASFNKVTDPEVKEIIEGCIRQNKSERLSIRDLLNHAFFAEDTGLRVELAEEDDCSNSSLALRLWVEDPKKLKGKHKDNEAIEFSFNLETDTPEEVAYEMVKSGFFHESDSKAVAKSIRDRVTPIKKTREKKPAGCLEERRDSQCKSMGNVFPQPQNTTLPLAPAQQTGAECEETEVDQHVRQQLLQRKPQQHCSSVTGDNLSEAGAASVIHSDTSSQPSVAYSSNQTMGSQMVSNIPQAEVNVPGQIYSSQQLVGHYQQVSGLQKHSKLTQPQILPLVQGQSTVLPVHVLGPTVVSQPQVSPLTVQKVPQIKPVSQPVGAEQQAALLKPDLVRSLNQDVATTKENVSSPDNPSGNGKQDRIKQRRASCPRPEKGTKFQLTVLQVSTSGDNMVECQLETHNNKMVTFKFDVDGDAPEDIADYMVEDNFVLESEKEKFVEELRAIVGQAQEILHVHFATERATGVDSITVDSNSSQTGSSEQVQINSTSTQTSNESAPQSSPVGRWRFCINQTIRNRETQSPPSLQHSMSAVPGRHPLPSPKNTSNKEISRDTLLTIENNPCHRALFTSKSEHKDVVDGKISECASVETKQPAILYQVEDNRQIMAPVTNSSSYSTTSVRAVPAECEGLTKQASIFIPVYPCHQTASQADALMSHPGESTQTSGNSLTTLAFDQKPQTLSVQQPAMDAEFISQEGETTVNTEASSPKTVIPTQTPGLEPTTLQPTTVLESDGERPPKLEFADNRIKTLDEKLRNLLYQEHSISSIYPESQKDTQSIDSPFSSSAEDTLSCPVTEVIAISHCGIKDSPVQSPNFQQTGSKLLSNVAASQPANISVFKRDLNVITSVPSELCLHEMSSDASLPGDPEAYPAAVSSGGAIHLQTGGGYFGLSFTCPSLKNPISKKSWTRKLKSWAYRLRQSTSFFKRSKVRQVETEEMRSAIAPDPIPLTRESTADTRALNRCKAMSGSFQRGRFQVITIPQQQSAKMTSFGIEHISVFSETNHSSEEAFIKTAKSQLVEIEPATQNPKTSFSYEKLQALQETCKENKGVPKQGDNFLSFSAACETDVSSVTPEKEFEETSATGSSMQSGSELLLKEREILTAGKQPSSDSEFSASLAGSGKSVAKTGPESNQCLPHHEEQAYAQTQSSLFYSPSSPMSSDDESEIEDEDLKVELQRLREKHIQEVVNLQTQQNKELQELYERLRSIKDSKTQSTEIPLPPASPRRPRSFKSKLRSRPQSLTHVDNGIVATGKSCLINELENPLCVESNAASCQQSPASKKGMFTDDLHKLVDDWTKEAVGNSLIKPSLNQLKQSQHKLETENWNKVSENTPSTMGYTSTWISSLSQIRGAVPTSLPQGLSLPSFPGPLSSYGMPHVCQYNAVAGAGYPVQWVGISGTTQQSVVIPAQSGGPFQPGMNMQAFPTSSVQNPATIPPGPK
Cyclin-dependent kinase 11B (Homo sapiens), sequence (P21127 whole entry): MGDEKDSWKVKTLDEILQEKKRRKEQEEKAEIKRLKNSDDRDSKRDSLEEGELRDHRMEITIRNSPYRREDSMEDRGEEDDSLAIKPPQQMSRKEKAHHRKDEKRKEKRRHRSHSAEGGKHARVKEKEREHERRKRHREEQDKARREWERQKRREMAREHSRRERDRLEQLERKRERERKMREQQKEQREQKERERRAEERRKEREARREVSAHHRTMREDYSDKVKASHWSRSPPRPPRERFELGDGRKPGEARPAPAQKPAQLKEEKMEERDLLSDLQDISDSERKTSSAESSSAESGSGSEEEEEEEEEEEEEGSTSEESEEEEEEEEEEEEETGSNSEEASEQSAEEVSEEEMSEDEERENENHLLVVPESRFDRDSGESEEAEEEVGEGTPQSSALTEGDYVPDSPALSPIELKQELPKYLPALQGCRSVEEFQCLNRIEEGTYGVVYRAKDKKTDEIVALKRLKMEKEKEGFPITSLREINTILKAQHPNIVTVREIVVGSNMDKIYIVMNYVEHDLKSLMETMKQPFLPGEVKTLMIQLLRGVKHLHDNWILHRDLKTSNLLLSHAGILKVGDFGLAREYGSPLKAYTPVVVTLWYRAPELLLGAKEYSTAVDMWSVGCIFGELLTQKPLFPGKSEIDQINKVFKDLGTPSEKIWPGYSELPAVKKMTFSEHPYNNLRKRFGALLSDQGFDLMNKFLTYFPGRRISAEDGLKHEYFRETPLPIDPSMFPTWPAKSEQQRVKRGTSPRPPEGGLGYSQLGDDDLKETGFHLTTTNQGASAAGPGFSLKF

For the compound `COc1cc2nc(C)nc(NC(C)c3ccc(-c4cnc5n4CCC5)s3)c2cc1OC` (stereo not drawn), the IC50 in [1] worked out at 650 nM.
`COc1cc2ncnc(N[C@H](C)c3cccc4ccccc34)c2cc1OC`: the Activity turned out to be 90% in assay [2]; 88% in assay [3]; 100% in [4]; 82% in assay [5]; 88% in assay [6]; 100% in assay [7]. Moreover, the Activity in assay [8] is 89%; in [9] it was 100%; in assay [10], 64%; in [11], 89%; in assay [12] it was 83%; in assay [13], 90%.
